Source: ChEMBL document CHEMBL4622849, “Discovery of ethyl ketone-based HDACs 1, 2, and 3 selective inhibitors for HIV latency reactivation” (Bioorg Med Chem Lett, 2020)

Assays:
Type in all cases: ADME, organism-based
Conditions in all cases: in vivo
[1] = Clearance in Wistar Han rat at 2 mg/kg, iv or 5 mg/kg, po
[2] = AUC in Wistar Han rat at 5 mg/kg, po
[3] = Cmax in Wistar Han rat at 5 mg/kg, po; parameters: dose 5 mg/kg, route oral
[4] = Oral bioavailability in Wistar Han rat at 5 mg/kg
[5] = Half life in Wistar Han rat at 2 mg/kg, iv or 5 mg/kg, po

clearance [1]: 7.2 mL/min/kg
AUC [2]: 1.13 µM·h
Cmax [3]: 260 nM
bioavailability [4]: 5.8%
half-life [5]: 3 h
Compound: CCC(=O)CCCCC[C@H](NC(=O)[C@H]1CC12CCN(CC)CC2)c1ncc(-c2cc3ccccc3nc2OC)[nH]1
